Literature values as cited in patent US5707615A, “Method of treating HIV infections with anti-viral formulations” (Merrell Pharmaceuticals Inc., priority 1997, dated 1998).

Assays:
[1] = test system: influenza; details: cited from earlier work
[2] = test system: HIV; details: cited from earlier work

## 2-deoxy-2-fluoroglucose
[1]
  viral protein glycosylation: inhibited viral protein glycosylation

## O=CC[C@@H](O)[C@H](O)[C@H](O)CO [2-deoxy-D-glucose]
[2]
  expression of HIV glycoproteins and formation of syncytia: inhibit expression of HIV glycoproteins and block the formation of syncytia
[1]
  viral protein glycosylation: inhibited viral protein glycosylation

## CCC(O)[C@H](N)C(=O)O (stereo partly drawn) [β-hydroxy-norvaline]
[2]
  expression of HIV glycoproteins and formation of syncytia: inhibit expression of HIV glycoproteins and block the formation of syncytia
